Assay results taken from patent US20250296967A1 (Ferring B.V., priority 2006, published 2025).

Columns and labels:
[1] = biological target: T1, Type I, bovine-derived, dermal collagen sheets (Bos taurus, UniProt P02453+P02465); test: Release of B2A2-K-NS from collagen (BCA); type: physicochemical; conditions: 0.9% saline
T1 construct: Type I, bovine-derived, dermal collagen sheets; from tissue; host or cells: bovine dermis
Experimental: To initiate release, a vial containing collagen coated with B2A2-K-NS was replenished with 2 ml of 0.9% saline and placed on the rocking platform. After specified time interval, the supernatant was removed, filtered, and collected. A BCA assay was utilized to determine peptide concentrations. […] The BSA standard curve was generated by placing BSA in supernatant from the collagen sponge (without peptide).

[2] = Release of B2A2-K-NS from ceramic granules (BCA, cumulative release, FIG. 1); type: physicochemical; conditions: first 4 hour period, 0.9% saline
Experimental: Methods: After binding the peptide to the granules as described in Example 2, each of the vials containing particulate materials was replenished with 1.8 mL of 0.9% saline and placed on the rocking platform. After specified time interval, the supernatant was removed, filtered, and collected over a period of 43 hrs. Based on the amount of the peptide present in the supernatant, the amount of peptide bound to or released from the particles as was calculated. The study was performed on two separate days with the averages plotted showing cumulative peptide released vs. time (see graph in FIG. 1) (Note: the HA plus silicon was only performed at high dose). A BCA assay was utilized to determine peptide concentrations. The 60:40 granule was pH 8.8.
Referring now to FIG. 1, the release characteristics of specified materials tested. There was a burst of peptide released over a 4 hour period (supernatant was assessed hourly for the first four hours). At high loading doses (431 μg peptide/cc granule), the burst phase accounted for 12-22% of the total amount of peptide loaded. For intermediate loading doses (144 μg peptide/cc granule), the burst phase accounted for 25-35% of the total amount loaded. For low doses (43 μg peptide/cc granule), the burst phase accounted for 48-59% of the total amount loaded. Following the burst period, there was a slower, sustained release period.
The diamond on the graph represents 60% HAP and 40% TCP (high dose). The square represents 60% HAP and 40% TCP (medium dose). The triangle represents 20% HAP and 80% TCP (high dose). The X represents 20% HAP and 80% TCP (medium dose). The star represents 100% HAP plus Si (high dose). The filled-in circle represents 60% HAP and 40% TCP (low dose), and the plus sign represents 20% HAP and 80% TCP (low dose).

B2A2-K-NS [3] = test: Release of B2A2-K-NS from peptide bound BRGs (ELISA); type: physicochemical; conditions: 0.9% saline
Experimental: The third step was to measure the amount of peptide released using the same ELISA assay. Briefly, the peptide bound BRGs were placed in 1 ml of 0.9% saline and the amount of peptide released was measured over a 72 hours period.

B2A2-K-NS [4] = test: Binding of B2A2-K-NS to ceramic granules (BCA / micro BCA, subtraction method); type: physicochemical; conditions: high B2A2-K-NS coating concentrations, as described in Example 2
Experimental: Methods. 1.5 cc of granules were added to 1.8 mL of 0.9% saline or of peptide solution in 0.9% saline having a concentration of 35.9, 119.8, 359.3 μg/ml. The granule-peptide solutions were swirled vigorously for 15 seconds every 5 minutes for 20 minutes. After swirling, the supernatant was removed, filtered through 0.22 μm filter (low protein binding durapore (PVDF)) and assayed via Bicinchoninic Acid (BCA) or micro BCA assay (Pierce, Rockport, IL) for peptide content. The amount of peptide bound to the particles was obtained by subtraction method (the total peptide minus peptide present in the supernatant is equal to the amount of peptide bound on particulate materials.). The study was performed on two separate days and the results averaged below: […]

[5] = test system: mouse pluripotent cell lines C2C12; test: Alkaline phosphatase assay of B2A2-K-NS released from 20:80 granules, with or without BMP-2; type: cell-based; conditions: peptide released from 20:80 granules, 1.25- to 10 μg/ml, BMP-2 100 ng/ml, C2C12 cells, 1 day
Experimental: Methods: (A) Peptide was collected over a six hour period after release from 20:80 (as described in Example 3). The supernatants from all time points were mixed, frozen, and lyophilized for 48 hours. The peptide pellet was reconstituted in 1.5 ml saline and a BCA assay performed to determine peptide concentration.
(B) Alkaline phosphatase assays were performed using mouse pluripotent cell lines C2C12. Cells were plated in 96-well (1×10^4/well) plates in DMEM/F-12 Ham's containing 15% FBS, 1% L-gln, 1% NaPyr, and 1% gentamycin and allowed 24 hours to attach at 37 C, 5% CO2, 90% humidity. […] After 1 day, ALP activity was determined.

[6] = biological target: T1, Type I, bovine-derived, dermal collagen sheets; test: Binding of B2A2-K-NS to collagen sheets; type: physicochemical; conditions: 1,072 μg B2A2-K-NS/ml collagen sheet in 0.9% saline
Experimental: Type I, bovine-derived, dermal collagen sheets that were crosslinked with DHT and lyophilized were incubated with 1,072 μg B2A2-K-NS/ml collagen sheet in 0.9% saline solution. The binding efficiency was 61%, which was far lower than the binding efficiency on the Ca^2+ containing granules at high B2A2-K-NS coating concentrations (87-95% as described in Example 2). Lower binding efficiencies may be attributed to lower surface area as compared to that of the granules.

B2A2-K-NS [7] = test: Binding of B2A2-K-NS to commercially available bone replacement grafts (ELISA, difference method); type: physicochemical; conditions: BRGs in 0.9% saline
Experimental: The next step was to determine whether the peptide was able to bind these BRGs. B2A2-K-NS (approximately 20 μg/ml) was incubated in one ml of 0.9% saline solution with 0.17 gram BRGs for 15 minutes. An ELISA assay was performed both on peptide solution without BRGs and the supernatant from the peptide+BRG. The difference between the peptide only reading and the supernatant from the peptide+BRG provided the amount of peptide bound.
The binding definitions are defined as follows: None is no detectable binding. High is binding>20 μg peptide/cc graft material. Intermediate is less than 20 μg peptide/cc graft material, but above non-detectable binding.

ectopic bone = test: Ectopic bone induction by B2A2-K-NS coated granules with exogenous recombinant BMP-2, subcutaneous implant in rats; type: in vivo
Experimental: Sterile ceramic granules (Berkeley Advanced Biomaterials, Inc.; 60:40 (HA:TCP)) where coated by immersing them for 30 minutes in a solution containing B2A2-K-NS (0-, 2.5-, 10-, 25 μg/ml). Thereafter, the solution was removed by aspiration and the granules allowed to air dry. The coated granules were then placed in sterile gelatin capsules. […] The capsules were placed subcutaneously in young adult rats on the flanks in pre-prepared pouches and the surgical site closed with surgical clips. After 30 days, the implants were surgically removed, weighed, and palpated to assess hardness. The explants were then fixed with multiple changes into 70% ethanol.

[8] = Comparative release of synthetic growth factor analogues from a single scaffold (BCA, FIG. 5); type: physicochemical; conditions: 100 μg peptide/cc granule, 0.9% saline
Experimental: Methods for assaying peptide release from a single scaffold are as follows: 1 cc of granules were added to 1.2 mL of 0.9% saline or of peptide solution in 0.9% saline having a concentration of 100 μg B2A2-K-NS, LA2, or F2A4/cc granule. The granule-peptide solutions were swirled vigorously for 15 seconds every 5 minutes for 20 minutes. After swirling, the supernatant was removed and assayed via BCA or micro BCA assay for peptide content. The BCA value for each peptide was corrected relative to the BSA standard curve.
Referring now to FIG. 5, the shape of the release curve is similar for all three peptides (B2A2-K-NS (diamonds), LA2 (squares), and F2A4-K-NS (triangles)). However, the magnitude of the release is markedly different.

T1 sequence (P02453 162-1217 limits assumed): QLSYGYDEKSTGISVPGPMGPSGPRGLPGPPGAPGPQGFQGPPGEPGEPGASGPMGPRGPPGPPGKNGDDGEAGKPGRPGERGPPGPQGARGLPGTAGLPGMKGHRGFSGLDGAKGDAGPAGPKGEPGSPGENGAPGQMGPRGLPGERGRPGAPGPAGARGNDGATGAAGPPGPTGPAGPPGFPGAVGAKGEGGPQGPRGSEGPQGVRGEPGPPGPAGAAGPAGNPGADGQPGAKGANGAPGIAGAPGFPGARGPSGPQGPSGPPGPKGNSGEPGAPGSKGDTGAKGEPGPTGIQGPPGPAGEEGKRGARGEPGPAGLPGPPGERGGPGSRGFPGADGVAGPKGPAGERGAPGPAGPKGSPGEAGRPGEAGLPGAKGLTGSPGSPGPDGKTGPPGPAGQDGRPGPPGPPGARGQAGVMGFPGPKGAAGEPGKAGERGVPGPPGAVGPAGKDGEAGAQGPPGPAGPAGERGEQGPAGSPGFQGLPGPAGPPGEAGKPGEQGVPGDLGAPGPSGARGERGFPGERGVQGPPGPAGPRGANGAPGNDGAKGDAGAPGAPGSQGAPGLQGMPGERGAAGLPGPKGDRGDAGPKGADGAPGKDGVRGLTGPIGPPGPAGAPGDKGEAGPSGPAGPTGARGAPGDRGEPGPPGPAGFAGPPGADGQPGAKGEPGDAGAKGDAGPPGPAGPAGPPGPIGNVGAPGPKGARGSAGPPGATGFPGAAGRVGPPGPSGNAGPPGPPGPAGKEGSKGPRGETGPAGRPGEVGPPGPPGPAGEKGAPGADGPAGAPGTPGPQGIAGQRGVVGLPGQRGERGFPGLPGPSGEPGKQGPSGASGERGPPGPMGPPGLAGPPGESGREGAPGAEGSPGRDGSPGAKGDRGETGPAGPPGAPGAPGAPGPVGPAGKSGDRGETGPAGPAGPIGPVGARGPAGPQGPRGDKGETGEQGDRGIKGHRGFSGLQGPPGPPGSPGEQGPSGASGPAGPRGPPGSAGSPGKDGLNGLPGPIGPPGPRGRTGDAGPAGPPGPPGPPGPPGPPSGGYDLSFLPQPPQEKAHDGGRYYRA
T1 sequence (P02465 80-1117 limits assumed): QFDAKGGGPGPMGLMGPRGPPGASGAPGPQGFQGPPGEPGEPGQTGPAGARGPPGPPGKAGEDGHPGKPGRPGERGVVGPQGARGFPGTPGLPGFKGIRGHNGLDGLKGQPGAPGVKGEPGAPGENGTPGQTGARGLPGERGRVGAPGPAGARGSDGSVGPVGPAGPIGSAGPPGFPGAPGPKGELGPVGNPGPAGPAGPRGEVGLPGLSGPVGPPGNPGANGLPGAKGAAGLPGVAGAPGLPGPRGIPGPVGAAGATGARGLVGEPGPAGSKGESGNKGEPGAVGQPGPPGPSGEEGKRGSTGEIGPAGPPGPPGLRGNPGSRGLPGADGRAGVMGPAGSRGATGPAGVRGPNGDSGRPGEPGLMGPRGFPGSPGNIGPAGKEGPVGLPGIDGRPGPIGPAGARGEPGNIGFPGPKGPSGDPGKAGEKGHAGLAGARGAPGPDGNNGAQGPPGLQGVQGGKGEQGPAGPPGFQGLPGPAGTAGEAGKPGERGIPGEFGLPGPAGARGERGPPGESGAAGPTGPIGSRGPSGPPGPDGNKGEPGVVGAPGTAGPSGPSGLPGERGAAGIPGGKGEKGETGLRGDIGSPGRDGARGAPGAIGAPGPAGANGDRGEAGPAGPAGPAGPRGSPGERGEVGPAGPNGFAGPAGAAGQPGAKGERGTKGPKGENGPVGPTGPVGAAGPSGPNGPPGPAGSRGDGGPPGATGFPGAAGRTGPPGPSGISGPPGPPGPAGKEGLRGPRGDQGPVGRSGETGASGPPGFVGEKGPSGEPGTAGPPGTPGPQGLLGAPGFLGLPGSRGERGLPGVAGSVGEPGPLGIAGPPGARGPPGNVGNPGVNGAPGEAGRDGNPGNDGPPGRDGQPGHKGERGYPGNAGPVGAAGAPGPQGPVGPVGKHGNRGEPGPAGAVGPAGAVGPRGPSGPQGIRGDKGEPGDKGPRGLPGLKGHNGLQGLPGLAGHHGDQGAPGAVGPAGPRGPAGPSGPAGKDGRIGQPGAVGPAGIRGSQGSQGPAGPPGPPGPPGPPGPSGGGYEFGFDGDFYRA

Substance	cumulative amount of peptide released ([1]; after 1 hour)	cumulative amount of peptide released ([1]; after 2 hours)	cumulative amount of peptide released ([1]; after 3 hours)	cumulative amount of peptide released ([1]; after 4 hours)	burst phase release, share of the total amount of peptide loaded ([2]; high loading doses (431 μg peptide/cc granule))	burst phase release, share of the total amount loaded ([2]; intermediate loading doses (144 μg peptide/cc granule))	burst phase release, share of the total amount loaded ([2]; low doses (43 μg peptide/cc granule))	pH range of materials from which the peptide could release (B2A2-K-NS [3])	binding efficiency on the Ca2+ containing granules (B2A2-K-NS [4])	effect on BMP-2 activity (ALP activity) [5]	binding efficiency [6]	pH range of BRGs to which the peptide was found to bind (B2A2-K-NS [7])	implants judged palpably hardened (ectopic bone; coated with 2.5 μg B2A2-K-NS, 1 μg recombinant BMP-2, rats, 30 days)	implants judged palpably hardened (ectopic bone; coated with 10 μg B2A2-K-NS, 1 μg recombinant BMP-2, rats, 30 days)	implants judged palpably hardened (ectopic bone; coated with 25 ug B2A2-K-NS, 1 μg recombinant BMP-2, rats, 30 days)	implants with histologically identifiable new bone (ectopic bone; coated with 25 ug B2A2-K-NS, 1 μg recombinant BMP-2, rats, 30 days, hematoxylin and eosin)	explant weight versus controls (no BMP-2, no B2A2-K-NS) (ectopic bone; rats, subcutaneous, 60:40 (HA:TCP) granules coated with 25 μg B2A2-K-NS, 1 μg recombinant BMP-2, 30 days)	explant weight versus those containing BMP-2 but no B2A2-K-NS (ectopic bone; rats, subcutaneous, granules coated with 25 μg B2A2-K-NS, 1 μg recombinant BMP-2, 30 days)	release of peptide from the scaffold (relative magnitude) [8]
AISMLYLDENEKVVLKK(AISMLYLDENEKVVLK)HxHxHxRKRLDRIARNH2 [B2A2-K-NS]	11%	19%	23%	28%	12-22%	25-35%	48-59%	6.3-10	87-95%	increased BMP-2 activity	61%	3.7-10.5	3/4	3/4	4/4	4/4	significantly higher weight	tended (p=0.11) to have a higher weight	–
SIKVAVAAK(H-SIKVAVAA)xHxHxRKRKLERIAR-amide [LA2]	–	–	–	–	–	–	–	–	–	–	–	–	–	–	–	–	–	–	most rapidly released
YRSRKYSSWYVALKRK(H-YRSRKYSSWYVALKR)HxHxHxRKRLDRIAR-amide [F2A4]	–	–	–	–	–	–	–	–	–	–	–	–	–	–	–	–	–	–	does not release readily
